Entries after “also recorded” stand apart in the source; their conditions may differ.
What was measured:
[1] = PXRD study of crystal form stability on storage; type: physicochemical
Description: Lesinurad Form APO-I can be characterized by a PXRD diffractogram comprising, among other peaks, characteristic peaks, expressed in degrees 2θ (±0.2°), at 7.8°, 15.1° and 27.0°. Preferably, the PXRD diffractogram further comprises at least three peaks, expressed in degrees 2θ (±0.2°), selected from the group consisting of: 14.5°, 15.6°, 16.4°, 17.6°, 18.5°, 19.9°, 22.1°, 23.5°, 25.9° and 29.3°. More preferably, the PXRD diffractogram further comprises peaks, expressed in degrees 2θ (±0.2°), at 14.5°, 15.6°, 16.4°, 17.6°, 18.5°, 19.9°, 22.1°, 23.5°, 25.9° and 29.3°. PXRD studies of a capped sample of Lesinurad Form APO-I have shown that this crystal form is stable following storage in a stability chamber maintained at 27° C./60% RH for 17 days.
Lesinurad Form APO-II can be characterized by a PXRD diffractogram comprising, among other peaks, characteristic peaks, expressed in degrees 2θ (±0.2°), at 7.9°, 15.2°, 16.5° and 25.4°. Preferably, the PXRD diffractogram further comprises at least two peaks, expressed in degrees 2θ (±0.2°), selected from the group consisting of: 14.4°, 15.7°, 17.7°, 18.4°, 22.1°, 22.8°, 23.5°, 26.5°, 28.8° and 29.3°. More preferably, the PXRD diffractogram further comprises peaks, expressed in degrees 2θ (±0.2°), at 14.4°, 15.7°, 17.7°, 18.4°, 22.1°, 22.8°, 23.5°, 26.5°, 28.8° and 29.3°. PXRD studies of a capped sample of Lesinurad Form APO-II have shown that this crystal form is stable following storage at room temperature and ambient humidity for 28 days.
Lesinurad Form APO-III can be characterized by a PXRD diffractogram comprising, among other peaks, characteristic peaks, expressed in degrees 2θ (±0.2°), at 6.2° and 19.9°. Preferably, the PXRD diffractogram further comprises at least four peaks, expressed in degrees 2θ (±0.2°), selected from the group consisting of: 7.6, 10.3°, 14.1°, 15.3°, 17.8°, 21.1°, 23.4°, 25.7° and 27.2°. More preferably, the PXRD diffractogram further comprises peaks, expressed in degrees 2θ (±0.2°), at 7.6°, 10.3°, 14.1°, 15.3°, 17.8°, 21.1°, 23.4°, 25.7° and 27.2°. PXRD studies of capped and uncapped samples of Lesinurad Form APO-III have shown that this crystal form is stable following storage in stability chambers maintained at 27° C./60% RH and 40° C./75% RH for 18 days.
Data were acquired on a PANanalytical X-Pert Pro MPD diffractometer with fixed divergence slits and an X'Celerator RTMS detector. The diffractometer was configured in Bragg-Brentano geometry; data was collected over a 2-theta range of 3° to 40° using CuKα radiation at a power of 40 mA and 45 kV. […] was removed using a divergent beam nickel filter. A step size of 0.017° was used. Samples were rotated to reduce preferred orientation effects. Samples were lightly ground prior to analysis. […]

[2] = Stability study under stress conditions (impurities, area %); type: physicochemical; settings: for Major Unidentified Impurity: RRT in brackets
Description: (§1) The stability of Lesinurad Form APO-III was assessed under various stress conditions as outlined in Table 5.

[3] = Hygroscopicity on storage in humid, high temperature environment; type: physicochemical; settings: stress conditions of Table 5 (open sample, 40° C./75% RH, 21 days)
Description: as §1
The title solid form of Lesinurad was prepared according to the procedure in Example 14 of WO 2015/095703 A1. A suspension of Lesinurad (1 g) in ethyl acetate (63 mL) was sonicated at room temperature for 30 minutes in order to achieve dissolution. Proline (570 mg) was added to the solution, and the resulting suspension was stirred at room temperature for 26 hours, at which time the suspension was isolated by filtration to afford a solid (872.9 mg, 68% yield) having a PXRD diffractogram consistent with FIG. 22 in WO 2015/095703 A1. […]

[4] = primary amine group; cited from earlier work
[5] = certain aqueous conditions, compared with Form 1; cited from earlier work
[6] = dry heat, heat/humidity and light exposure
[7] = light exposure 200 W·hr/m^2 UV + 1.2M LUX hr fluorescent
[8] = open sample, dry heat, solid state, 60° C./ambient RH, 21 days
[9] = open sample, heat/humidity, solid state, 40° C./75% RH, 21 days
[10] = sample wrapped in foil (control), light exposure 200 W·hr/m^2 UV + 1.2M LUX hr fluorescent

O=C(O)CSc1nnc(Br)n1-c1ccc(C2CC2)c2ccccc12 [Lesinurad Form APO-I, Lesinurad]
crystal form stability by PXRD ([1]; capped sample, stability chamber 27° C./60% RH, 17 days): stable; also recorded: no change

O=C(O)CSc1nnc(Br)n1-c1ccc(C2CC2)c2ccccc12 [Lesinurad Form APO-III, Lesinurad]
crystal form stability by PXRD ([1]; capped and uncapped samples, 27° C./60% RH, 18 days): no change; also recorded: stable
crystal form stability by PXRD ([1]; capped and uncapped samples, 40° C./75% RH, 18 days): no change; also recorded: stable
Total Identified Impurity ([2]; Non-stressed sample): 0.09 area %
Total Impurities ([2]; Non-stressed sample): 0.33 area %
Total Unidentified Impurity ([2]; Non-stressed sample): 0.24 area %
Major Unidentified Impurity ([2]; Non-stressed sample): 0.08 (0.91) area %
loss of Lesinurad [2, 6]: no significant loss
stability to stress conditions [2, 6]: good stability
total degradation ([2]; dry heat, heat/humidity and light exposure (Table 5)): less than 0.10%
chemical and physical stability ([2]; humid and high temperature environment): chemically and physically stable
Total Identified Impurity [2, 7]: 0.10 area %
Total Impurities [2, 7]: 0.46 area %
Total Unidentified Impurity [2, 7]: 0.35 area %
Major Unidentified Impurity [2, 7]: 0.09 (0.92) area %
Total Identified Impurity [2, 8]: 0.10 area %
Total Impurities [2, 8]: 0.40 area %
Total Unidentified Impurity [2, 8]: 0.30 area %
Major Unidentified Impurity [2, 8]: 0.09 (0.91) area %
Total Identified Impurity [2, 9]: 0.09 area %
Total Impurities [2, 9]: 0.38 area %
Total Unidentified Impurity [2, 9]: 0.29 area %
Major Unidentified Impurity [2, 9]: 0.09 (0.91) area %
Total Identified Impurity [2, 10]: 0.10 area %
Total Impurities [2, 10]: 0.42 area %
Total Unidentified Impurity [2, 10]: 0.32 area %
Major Unidentified Impurity [2, 10]: 0.09 (0.92) area %
hygroscopicity [3]: did not exhibit signs of hygroscopicity

O=C(O)[C@@H]1CCCN1 [Proline]
pKa [4]: approximately 10.6

O=C(O)CSc1nnc(Br)n1-c1ccc(C2CC2)c2ccccc12 [Lesinurad Form APO-II, Lesinurad]
crystal form stability by PXRD ([1]; capped sample, room temperature and ambient humidity, 28 days): no change; also recorded: stable

O=C(O)CSc1nnc(Br)n1-c1ccc(C2CC2)c2ccccc12 [Form 2, Lesinurad]
solubility [5]: lower solubility than Form 1

Reference: US10513500B2, “Crystalline forms of Lesinurad” (Apotex Inc., priority 2016, dated 2019)
